Reference: patent publication US20090306133A1, “New Acetyl Coenzyme A Carboxylase (ACC) Inhibitors And Uses In Treatments Of Obesity And Diabetes Mellitus - 087” (ASTRAZENECA AB, priority 2007, published 2009)

What was measured:
[1] = biological target: Human recombinant Acetyl-CoA Carboxylase 2 (ACC2) (Homo sapiens, UniProt O00763); test: Assay X: ACC2 inhibition, inorganic phosphate (malachite green); type: biochemical; conditions: Assay X: 37° C., 1.5 h, 5 min pre-incubation
Outline: (§1)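 Human recombinant enzyme pre-incubated 5 min with compound before substrate addition; reaction run 1.5 h, then inorganic phosphate detected by malachite green absorbance at 660 nm. Ten concentrations tested in triplicate; apparent IC50 from four-parameter curve fit.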

[2] = biological target: Human recombinant Acetyl-CoA Carboxylase 1 (ACC1) (Homo sapiens, UniProt Q13085); test: Assay X: ACC1 inhibition, inorganic phosphate (malachite green); type: biochemical; conditions: Assay X: 37° C., 1.5 h, 5 min pre-incubation
Outline: as §1

Chain of Human recombinant Acetyl-CoA Carboxylase 2 (ACC2) (O00763 whole entry): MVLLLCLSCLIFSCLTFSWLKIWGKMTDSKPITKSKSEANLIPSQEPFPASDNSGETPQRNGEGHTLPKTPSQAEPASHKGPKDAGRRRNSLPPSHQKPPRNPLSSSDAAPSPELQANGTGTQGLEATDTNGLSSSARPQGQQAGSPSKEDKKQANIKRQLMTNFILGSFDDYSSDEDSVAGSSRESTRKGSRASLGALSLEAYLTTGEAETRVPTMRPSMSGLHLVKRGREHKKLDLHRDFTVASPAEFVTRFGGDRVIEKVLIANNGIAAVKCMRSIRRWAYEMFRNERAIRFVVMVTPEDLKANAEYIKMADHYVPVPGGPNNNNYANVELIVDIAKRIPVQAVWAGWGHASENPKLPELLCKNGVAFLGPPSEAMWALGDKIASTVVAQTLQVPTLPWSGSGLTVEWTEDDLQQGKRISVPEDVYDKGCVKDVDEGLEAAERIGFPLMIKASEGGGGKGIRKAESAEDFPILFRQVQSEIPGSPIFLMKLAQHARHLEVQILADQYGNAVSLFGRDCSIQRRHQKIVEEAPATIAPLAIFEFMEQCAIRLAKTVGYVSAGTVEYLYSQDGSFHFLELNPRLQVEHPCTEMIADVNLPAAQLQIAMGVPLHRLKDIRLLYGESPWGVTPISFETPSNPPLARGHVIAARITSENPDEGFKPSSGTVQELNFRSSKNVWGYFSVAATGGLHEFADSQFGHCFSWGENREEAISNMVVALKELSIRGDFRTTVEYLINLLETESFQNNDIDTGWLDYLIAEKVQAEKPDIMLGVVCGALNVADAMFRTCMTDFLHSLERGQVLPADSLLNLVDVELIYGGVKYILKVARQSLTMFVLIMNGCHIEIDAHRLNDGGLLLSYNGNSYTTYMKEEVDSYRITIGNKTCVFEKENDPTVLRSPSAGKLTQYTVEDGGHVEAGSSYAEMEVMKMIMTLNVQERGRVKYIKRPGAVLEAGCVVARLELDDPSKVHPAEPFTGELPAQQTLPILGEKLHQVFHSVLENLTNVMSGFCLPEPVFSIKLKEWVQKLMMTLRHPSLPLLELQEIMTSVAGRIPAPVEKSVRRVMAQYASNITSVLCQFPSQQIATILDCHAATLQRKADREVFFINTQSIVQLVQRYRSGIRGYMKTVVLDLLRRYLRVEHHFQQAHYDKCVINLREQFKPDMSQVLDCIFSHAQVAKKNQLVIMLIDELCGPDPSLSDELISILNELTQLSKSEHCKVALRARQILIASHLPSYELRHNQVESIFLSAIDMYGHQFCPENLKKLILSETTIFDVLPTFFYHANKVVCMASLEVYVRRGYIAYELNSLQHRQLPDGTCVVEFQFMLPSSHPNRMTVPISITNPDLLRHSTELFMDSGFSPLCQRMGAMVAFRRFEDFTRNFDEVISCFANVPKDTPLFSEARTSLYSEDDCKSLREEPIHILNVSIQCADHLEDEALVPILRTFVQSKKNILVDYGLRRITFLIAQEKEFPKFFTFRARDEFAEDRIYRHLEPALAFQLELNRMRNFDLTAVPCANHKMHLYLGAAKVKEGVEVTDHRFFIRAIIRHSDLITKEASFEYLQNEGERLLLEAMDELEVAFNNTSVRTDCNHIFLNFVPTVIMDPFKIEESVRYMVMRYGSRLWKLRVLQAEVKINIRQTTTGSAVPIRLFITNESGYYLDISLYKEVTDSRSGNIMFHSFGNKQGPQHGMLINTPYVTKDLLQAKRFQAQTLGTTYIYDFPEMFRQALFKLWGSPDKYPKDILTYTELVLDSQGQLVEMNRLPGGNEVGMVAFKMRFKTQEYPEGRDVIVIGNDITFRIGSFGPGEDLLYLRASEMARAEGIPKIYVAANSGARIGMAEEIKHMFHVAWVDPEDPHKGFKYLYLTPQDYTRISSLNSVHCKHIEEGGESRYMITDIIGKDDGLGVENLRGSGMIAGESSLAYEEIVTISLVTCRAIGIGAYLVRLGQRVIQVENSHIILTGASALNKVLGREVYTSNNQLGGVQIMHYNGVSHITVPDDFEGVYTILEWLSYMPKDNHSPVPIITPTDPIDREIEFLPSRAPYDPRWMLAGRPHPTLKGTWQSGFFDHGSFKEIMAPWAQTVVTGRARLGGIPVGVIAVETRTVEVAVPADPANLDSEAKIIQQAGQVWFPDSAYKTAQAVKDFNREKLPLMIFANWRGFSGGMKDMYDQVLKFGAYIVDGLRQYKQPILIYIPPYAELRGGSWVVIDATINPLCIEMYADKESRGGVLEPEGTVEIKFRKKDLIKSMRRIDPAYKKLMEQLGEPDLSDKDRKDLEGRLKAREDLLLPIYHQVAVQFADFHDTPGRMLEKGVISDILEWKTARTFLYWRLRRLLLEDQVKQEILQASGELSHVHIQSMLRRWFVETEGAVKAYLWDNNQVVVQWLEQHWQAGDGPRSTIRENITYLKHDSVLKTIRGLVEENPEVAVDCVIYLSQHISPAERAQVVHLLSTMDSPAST

Structure (SMILES) | IC50 [1] | IC50 [2]
CC(C)(C)OC(=O)NC[C@H]1CC[C@H](CNC(=O)c2cc(N3CCC(CCN)CC3)nc3ccccc23)CC1 [Example 194, tert-Butyl [(trans-4-{[({2-[4-(2-aminoethyl)piperidin-1-yl]quinolin-4-yl}carbonyl)amino]methyl}cyclohexyl)methyl]carbamate] | 50 nM | 510 nM
CN(C)CC(F)CC1CCN(c2cc(C(=O)NC[C@H]3CC[C@H](CNC(=O)OC(C)(C)C)CC3)c3ccccc3n2)CC1 (stereo partly drawn) [Example 237, tert-Butyl {[trans-4-({[(2-{4-[3-(dimethylamino)-2-fluoropropyl]piperidin-1-yl}quinolin-4-yl)carbonyl]amino}methyl)cyclohexyl]methyl}carbamate] | 140 nM | 1090 nM
COCCN(C)CCC1CCN(c2cc(C(=O)NC[C@H]3CC[C@H](CNC(=O)OC(C)(C)C)CC3)c3ccccc3n2)CC1 [Example 227, tert-Butyl({trans-4-[({[2-(4-{2-[(2-methoxyethyl)(methyl)-amino]ethyl}piperidin-1-yl)quinolin-4-yl]carbonyl}amino)-methyl]cyclohexyl}-methyl)carbamate] | 230 nM | 1630 nM
CC(C)(C)OC(=O)NC[C@H]1CC[C@H](CNC(=O)c2cc(N3CCC(CCN4CC(C(=O)O)C4)CC3)nc3ccccc23)CC1 [Example 235, 1-{2-[1-(4-{[(trans-4-{[(tert-Butoxycarbonyl)amino]methyl}cyclohexyl)methyl]-carbamoyl}quinolin-2-yl)piperidin-4-yl]ethyl}azetidine-3-carboxylic Acid] | 230 nM | 1840 nM
CC(C)(C)OC(=O)NC[C@H]1CC[C@H](CNC(=O)c2cc(-c3ccc(N4CCNC(=O)C4)nc3)nc3ccccc23)CC1 [Example 165, tert-Butyl[(trans-4-{[({2-[6-(3-oxopiperazin-1-yl)-pyridin-3-yl]quinolin-4-yl}carbonyl)amino]-methyl}cyclohexyl)methyl]carbamate] | 160 nM | 540 nM
CC(=O)NCC1CCN(c2cc(C(=O)NC[C@H]3CC[C@H](CNC(=O)OC(C)(C)C)CC3)c3ccccc3n2)CC1 [Example 191, tert-Butyl [(trans-4-{[({2-[4-(acetamidomethyl)piperidin-1-yl]quinolin-4-yl}carbonyl)amino]methyl}cyclohexyl)methyl]carbamate] | 970 nM | 2960 nM
CN(C)CC(O)CC1CCN(c2cc(C(=O)NC[C@H]3CC[C@H](CNC(=O)OC(C)(C)C)CC3)c3ccccc3n2)CC1 (stereo partly drawn) [Example 205, tert-Butyl {[trans-4-({[(2-{4-[3-(dimethylamino)-2-hydroxypropyl]piperidin-1-yl}quinolin-4-yl)carbonyl]amino}methyl)cyclohexyl]methyl}carbamate] | 140 nM | 1310 nM
CC(C)(C)OC(=O)NC[C@H]1CC[C@H](CNC(=O)c2cc(N3CCC(CCN4CC(N)C4)CC3)nc3ccccc23)CC1 [Example 236, tert-Butyl {[trans-4-({[(2-{4-[2-(3-aminoazetidin-1-yl)ethyl]piperidin-1-yl}quinolin-4-yl)carbonyl]amino}methyl)cyclohexyl]methyl}carbamate] | 80 nM | 550 nM
CN1CCN(c2ccc(-c3cc(C(=O)NC[C@H]4CC[C@H](CNC(=O)OCCn5cccn5)CC4)c4ccccc4n3)cn2)CC1 [Example 129, 2-(1H-Pyrazol-1-yl)ethyl-[(trans-4-{[({2-[6-(4-methylpiperazin-1-yl)pyridin-3-yl]quinolin-4-yl}carbonyl)amino]methyl}cyclohexyl)methyl]carbamate] | 2440 nM | 7940 nM
CN1CCC(C2CCN(c3cc(C(=O)NC[C@H]4CC[C@H](CNC(=O)OC(C)(C)C)CC4)c4ccccc4n3)CC2)CC1 [Example 225, tert-Butyl ({trans-4-[({[2-(1′-methyl-4,4′-bipiperidin-1-yl)quinolin-4-yl]carbonyl}amino)methyl]cyclohexyl}methyl)carbamate] | 110 nM | 950 nM
CC(C)(C)OC(=O)NC[C@H]1CC[C@H](CNC(=O)c2cc(-c3cnn(CCO)c3)nc3ccccc23)CC1 [Example 243, tert-Butyl [(trans-4-{[({2-[1-(2-hydroxyethyl)-1H-pyrazol-4-yl]quinolin-4-yl}carbonyl)amino]methyl}cyclohexyl)methyl]carbamate] | 610 nM | 1930 nM
CC(CNc1ccc(-c2cc(C(=O)NC[C@H]3CC[C@H](CNC(=O)OC(C)(C)C)CC3)c3ccccc3n2)cn1)C(=O)O (relative stereo) [Example 158, 3-{[5-(4-{[(trans-4-{[(tert-Butoxycarbonyl)amino]methyl}cyclohexyl)methyl]-carbamoyl}quinolin-2-yl)pyridin-2-yl]amino}-2-methyl-propanoic acid] | 1240 nM | 3870 nM
CC(C)(C)OC(=O)NC[C@H]1CC[C@H](CNC(=O)c2cc(-c3cccnc3)nc(-c3cccc(CN)c3)c2)CC1 [Example 240, tert-Butyl [(trans-4-{[({6-[3-(aminomethyl)phenyl]-2,3′-bipyridin-4-yl}carbonyl)amino]methyl}cyclohexyl)methyl]carbamate] | 360 nM | 1080 nM
CC(C)(C)OC(=O)NC[C@H]1CC[C@H](CNC(=O)c2cc(N3CCC(CC(O)CN4CCCC4)CC3)nc3ccccc23)CC1 (single isomer, unassigned) [Example 209, (S) or (R) tert-Butyl [(trans-4-{[({2-[4-(2-hydroxy-3-pyrrolidin-1-ylpropyl)-piperidin-1-yl]quinolin-4-yl}carbonyl)amino]-methyl}cyclohexyl)methyl]carbamate] | 110 nM | 780 nM
CC(C)(C)OC(=O)NC[C@H]1CC[C@H](CNC(=O)c2cc(N3CCC(CCN4CCC(O)C4)CC3)nc3ccccc23)CC1 (relative stereo) [Example 230, tert-Butyl{[trans-4-({[(2-{4-[2-(3-hydroxypyrrolidin-1-yl)ethyl]piperidin-1-yl}quinolin-4-yl)carbonyl]amino}-methyl)cyclohexyl]-methyl}carbamate] | 160 nM | 1330 nM
O=C(NC[C@H]1CC[C@H](CNC(=O)c2cc(-c3ccc(N4CC[C@@H](O)C4)nc3)nc3ccccc23)CC1)OC1CCOCC1 [Example 202, Tetrahydro-2H-pyran-4-yl {[trans-4-({[(2-{6-[(3R)-3-hydroxypyrrolidin-1-yl]pyridin-3-yl}quinolin-4-yl)carbonyl]amino}methyl)cyclohexyl]methyl}-carbamate] | 510 nM | 1100 nM
COCCNc1ccc(-c2cc(C(=O)NC[C@H]3CC[C@H](CNC(=O)OC(C)(C)C)CC3)c3ccccc3n2)cn1 [Example 156, tert-Butyl{[trans-4-({[(2-{6-[(2-methoxyethyl)amino]pyridin-3-yl}quinolin-4-yl)carbonyl]amino}methyl)cyclohexyl]methyl}carbamate] | 350 nM | 810 nM
CN1CCN(CCOc2ccc(-c3cc(C(=O)NC[C@H]4CC[C@H](CNC(=O)OC(C)(C)C)CC4)c4ccccc4n3)cn2)CC1 [Example 179, tert-Butyl{[trans-4-({[(2-{6-[2-(4-methylpiperazin-1-yl)ethoxy]pyridin-3-yl}quinolin-4-yl)carbonyl]amino}-methyl)cyclohexyl]-methyl}carbamate] | 550 nM | 1800 nM
CN(C)CCOc1ccc(-c2cc(C(=O)NC[C@H]3CC[C@H](CNC(=O)O[C@H]4CCOC4)CC3)c3ccccc3n2)cn1 [Example 196, (3S)-Tetrahydrofuran-3-yl {[trans-4-({[(2-{6-[2-(dimethylamino)ethoxy]pyridin-3-yl}quinolin-4-yl)carbonyl]amino}methyl)cyclohexyl]methyl}carbamate] | 920 nM | 3480 nM
CN(C)C(=O)COC1CCN(c2cc(C(=O)NC[C@H]3CC[C@H](CNC(=O)OC(C)(C)C)CC3)c3ccccc3n2)CC1 [Example 210, tert-Butyl {[trans-4-({[(2-{4-[2-(dimethylamino)-2-oxoethoxy]piperidin-1-yl}quinolin-4-yl)carbonyl]amino}methyl)cyclohexyl]methyl}carbamate] | 2040 nM | 13100 nM
CC(C)(C)OC(=O)NC[C@H]1CC[C@H](CNC(=O)c2cc(N3CCNCC3)nc3ccccc23)CC1 [Example 190, tert-Butyl {[trans-4-({[(2-piperazin-1-ylquinolin-4-yl)carbonyl]amino}methyl)-cyclohexyl]methyl}carbamate] | 1300 nM | 13600 nM
CC(C)(C)OC(=O)NC[C@H]1CC[C@H](CNC(=O)c2cc(-c3ccc(NCC(O)CO)nc3)nc3ccccc23)CC1 (relative stereo) [Example 162, tert-Butyl{[trans-4-({[(2-{6-[(2,3-dihydroxypropyl)amino]pyridin-3-yl}quinolin-4-yl)carbonyl]amino}-methyl)cyclohexyl]-methyl}carbamate] | 370 nM | 880 nM
CN1CCC(COc2cc(C(=O)NC[C@H]3CC[C@H](CNC(=O)OC(C)(C)C)CC3)c3ccccc3n2)CC1 [Example 216, tert-Butyl [(trans-4-{[({2-[(1-methylpiperidin-4-yl)methoxy]quinolin-4-yl}carbonyl)amino]methyl}cyclohexyl)methyl]-carbamate] | 720 nM | 3550 nM
CC(O)C(C)Oc1ccc(-c2cc(C(=O)NC[C@H]3CC[C@H](CNC(=O)OC(C)(C)C)CC3)c3ccccc3n2)cn1 (relative stereo) [Example 176, tert-Butyl[(trans-4-{[({2-[6-(2-hydroxy-1-methylpropoxy)-pyridin-3-yl]-quinolin-4-yl}-carbonyl)amino]-methyl}cyclohexyl)methyl]carbamate] | 1050 nM | 3040 nM
